{"source": "patent US20240423998A1", "about": "“METHODS OF TREATING AGITATION AND OTHER DEMENTIA-ASSOCIATED BEHAVIORAL SYMPTOMS” (WOOLSEY PHARMACEUTICALS, INC., priority 2021, published 2024)", "key": {"[1]": {"details": "in vivo, metabolite; cited from earlier work"}, "[2]": {"system": "agitation in patients with Alzheimer's Dementia (AD)", "experiment": "Clinical trial of oral fasudil in reducing agitation in patients with Alzheimer's Dementia (CMAI score)", "format": "in vivo, human", "description": "All the patients were treated for 6 weeks with 90 mg per day (30 mg TID) and a subset of patients was treated an additional 6 weeks with 180 mg per day (60 mg TID). […] A variety of assessments were conducted at baseline and at the end of treatment, including the NPI-Q and the CMAI.\nTwo baseline thresholds were set, and two analyses were done based on the two groupings that resulted. One threshold was based on the agitation/aggression domain of the NPI-Q and the other based on the CMAI score.\nThe first selection was based on NPI-Q score of ≥4.\nThe second selection required a baseline CMAI score of ≥20 and this yielded a 13-patient subgroup, having a mean baseline CMAI score of 34.4. […] All the patients selected using the NPI-Q agitation/aggression domain score of ≥4 were also included in this subgroup.\nThe analysis looked at the CMAI score prior to treatment and compared it to the last day of treatment (6 weeks for the 10 patients on the low dose and 12 weeks for the 3 patients on the high dose)."}, "[3]": {"system": "mice", "details": "six-month old mice, 10 mg/kg oral gavage once a day for 30 days; reduction indicates anxiety; cited from earlier work"}}, "note": "Counter-ions that a name gives are not always drawn."}
{"smiles": "O=S(=O)(c1cccc2c(O)nccc12)N1CCCNCC1", "note": "[M3]", "values": [{"measurement": "half-life", "setting": "[1]", "result": "about 8 hours"}]}
{"smiles": "O=S(=O)(c1cccc2cnccc12)N1CCCNCC1", "note": "[fasudil HCl hemihydrate, Hexahydro-1-(5-isoquinolinesulfonyl)-1H-1,4-diazepine monohydrochloride hemihydrate]", "values": [{"measurement": "tolerability of treatment regimens", "setting": "[2]; nineteen AD patients, 90 mg per day (30 mg TID) 6 weeks and 180 mg per day (60 mg TID) additional 6 weeks", "result": "well tolerated"}]}
{"smiles": "O=S(=O)(c1cccc2cnccc12)N1CCCNCC1", "note": "[fasudil]", "values": [{"measurement": "difference in mean CMAI score, baseline vs end of treatment", "setting": "[2]; six patients with baseline NPI-Q score >=4, 90 mg per day (30 mg TID) for 6 weeks", "result": 22.3}, {"measurement": "mean CMAI score at the end of treatment", "setting": "[2]; six patients with baseline NPI-Q score >=4, 90 mg per day (30 mg TID) for 6 weeks, mean baseline CMAI 45.3", "result": 23.0}, {"measurement": "difference in mean CMAI score, prior to treatment vs end of treatment", "setting": "[2]; thirteen patients with baseline CMAI score >=20, 6 weeks at 90 mg per day (10 patients) or additional 6 weeks at 180 mg per day (3 patients)", "result": 12.6}, {"measurement": "mean CMAI score at the end of treatment", "setting": "[2]; thirteen patients with baseline CMAI score >=20, 6 weeks at 90 mg per day (10 patients) or additional 6 weeks at 180 mg per day (3 patients), mean baseline CMAI 34.4", "result": 21.8}, {"measurement": "amount of time spent in the open arms of the maze", "setting": "[3]", "result": "significantly reduced"}]}
